# Assays:
# [1] = tested on: OXT (Homo sapiens oxytocin/neurophysin I prepropeptide mRNA, NM_000915); assay: Full thickness tissue DNA microarray screening, OXT gene expression; format: cell-based
# Source text: (§1) DNA microarrays were used to screen xanthohumol for changes in the expression of thousands of different genes. DNA microarrays are extremely powerful tools that allow users to analyze changes in gene expression by monitoring changes in the messenger ribonucleic acid (“mRNA”) of hundreds to thousands of genes in a single experiment. All cells function by using their genes to make protein products. This process starts by making an mRNA copy of the gene through a process called transcription. The mRNA copy is then translated into a protein that plays a functional role within the cell or the cell's environment. Since the process of gene expression is highly regulated, the amount of mRNA can be a good indicator of the level of activity for a specific gene. With the introduction of DNA microarrays, researchers can now rapidly obtain a much more global view of what is happening inside of a cell since the results of one or two array experiments can potentially generate data on changes in gene expression across the entire known human genome.
# (§2) This would result in a ratio of 1. If a treatment increases the expression of a gene, then the median intensity of the feature would be greater in the scan from the red laser than the green, resulting in a ration that is greater than 1. […] These broader ranges are a more conservative judging criterion and account for possible sources of variation in fluorescence intensity that are not associated with the treatment.
# (§3) In addition to the information on active ingredients and raw materials that the DNA microarray can provide, the arrays can be used to better characterize the mechanisms of action related to certain therapeutic categories. The array data also allows the verification that a gene of interest is expressed in a certain model before running an experiment. The following tables provide the data based on the ratio of means after 50 μL of a xanthohumol liquid formulation with a concentration of 5 mg/ml xanthohumol was used in the following experiment. RNA was isolated from the tissues for subsequent analysis via DNA microarrays.
# [2] = tested on: OXTR (Homo sapiens oxytocin receptor mRNA, NM_000916); assay: Full thickness tissue DNA microarray screening, OXTR gene expression; format: cell-based
# Source text: as §1, §2, §3
# [3] = 50 μL of xanthohumol liquid formulation, 5 mg/ml, full thickness tissue, >=1.3 up-regulated, <=0.7 down-regulated
# [4] = 50 μL of xanthohumol liquid formulation, 5 mg/ml, green laser scan
# [5] = 50 μL of xanthohumol liquid formulation, 5 mg/ml, red laser scan (treated)
# [6] = ratio of means above 1.3 = up-regulated
smiles,measurement,setting,value
COc1cc(O)c(CC=C(C)C)c(O)c1C(=O)/C=C/c1ccc(O)cc1 [xanthohumol],Ratio of Means (OXT),[1]; [3],2.488
same,F532 Median (OXT),[1]; [4],78
same,F635 Median (OXT),[1]; [5],171
same,regulation of OXT gene (in words),[1]; [6],significantly up-regulated
same,Ratio of Means (OXTR),[2]; [3],3.5
same,F532 Median (OXTR),[2]; [4],43
same,F635 Median (OXTR),[2]; [5],53
same,up-regulation of OXTR,[2]; DNA microarray,greater than 50%
same,regulation of OXTR gene (in words),[2]; [6],significantly up-regulated
